According to patent EP4711369A1, “1H-[1,2,3]TRIAZOLO[4,5-H]QUINAZOLINE COMPOUNDS AS PROTEIN KINASE INHIBITORS” (Chengdu Cynogen Bio-Pharmaceutical Technology Co., Ltd., priority 2023, dated 2024):

Assays:
CDK9/cyclin T1 = CDK9/cyclin T1 (Homo sapiens, UniProt P50750); assay: Assay of kinase activity (ADP-Glo); assay type: biochemical; conditions: kinase inhibitory activity
Summary of the method: (§1)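 Human CDK6/cyclin D3 and CDK9/cyclin T1 preincubated 10 min at 25 °C with compound in 50 mM Hepes, 10 mM MgCl2, 0.01% Brij35, 2 mM DTT, then reacted 60 min at 25 °C with substrate and ATP. ADP formed measured by ADP-Glo luminescence; IC50 from nonlinear concentration-response fitting.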

CDK6/cyclin D3 = CDK6/cyclin D3 (Homo sapiens, UniProt Q00534); assay: Assay of kinase activity (ADP-Glo); assay type: biochemical; conditions: kinase inhibitory activity
CDK6/cyclin D3, sequence (Q00534 whole entry, species assumed): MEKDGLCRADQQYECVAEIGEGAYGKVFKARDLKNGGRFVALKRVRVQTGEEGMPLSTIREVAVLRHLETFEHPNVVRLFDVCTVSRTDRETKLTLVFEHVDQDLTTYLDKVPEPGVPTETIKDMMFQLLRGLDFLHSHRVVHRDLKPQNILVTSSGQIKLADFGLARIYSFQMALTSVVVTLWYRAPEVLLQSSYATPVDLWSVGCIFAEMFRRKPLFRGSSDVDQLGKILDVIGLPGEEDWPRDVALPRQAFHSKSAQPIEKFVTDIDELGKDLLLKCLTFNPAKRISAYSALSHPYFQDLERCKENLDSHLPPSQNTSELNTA
CDK6/cyclin D3, sequence (P30281 whole entry partner, species assumed): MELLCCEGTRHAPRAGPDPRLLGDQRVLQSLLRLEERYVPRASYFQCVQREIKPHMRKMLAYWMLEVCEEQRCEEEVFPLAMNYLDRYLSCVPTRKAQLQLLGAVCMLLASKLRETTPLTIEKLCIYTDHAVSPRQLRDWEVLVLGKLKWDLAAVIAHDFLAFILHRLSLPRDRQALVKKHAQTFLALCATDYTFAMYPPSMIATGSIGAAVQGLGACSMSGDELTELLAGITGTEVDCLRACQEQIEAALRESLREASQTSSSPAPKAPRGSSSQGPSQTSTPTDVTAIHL
Summary of the method: as §1

[1] = tested on: human gastric cancer MKN1 cells; assay: Assay of cell proliferation (CellTiter-Glo); assay type: cell-based; conditions: Homo sapiens, MKN-1, 144 h; MNK1, 6 days; read-out: MKN1 IC50 of cell proliferation inhibitory activity
Summary of the method: (§2)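 Cells seeded per line at growth-adapted densities, treated 6 days at 37 °C/5% CO2 with nine 3-fold dilutions (10 µM to 0.1 nM final, 0.5% DMSO). Viability by CellTiter-Glo luminescence; IC50 from four-parameter fit.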

[2] = tested on: human acute myeloid leukemia MV-4-11 cells; assay: Assay of cell proliferation (CellTiter-Glo); assay type: cell-based; conditions: MV4-11, 144 h, 6 days, read-out: MV-4-11 IC50 of cell proliferation inhibitory activity
Summary of the method: as §2

[3] = tested on: human breast cancer HCC1806 cells; assay: Assay of cell proliferation (CellTiter-Glo); assay type: cell-based; conditions: Homo sapiens, 144 h, 6 days, read-out: HCC1806 IC50 of cell proliferation inhibitory activity
Summary of the method: as §2

[4] = tested on: Human ovarian cancer OVCAR3 cells; assay: Assay of cell proliferation (CellTiter-Glo); assay type: cell-based; conditions: Homo sapiens, OVCAR-3, 144 h, 6 days, read-out: OVCAR3 IC50 of cell proliferation inhibitory activity
Summary of the method: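 OVCAR3 cells, 2000/well in RPMI 1640 with 20% FBS, treated with nine 3-fold dilutions from 10 µM to 0.1 nM (0.5% DMSO) for 6 days at 37 °C. Viability by CellTiter-Glo luminescence; IC50 by four-parameter fit.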

CDK2/cyclin E = CDK2/cyclin E (Homo sapiens, UniProt P24941); assay: Assay of kinase activity (ADP-Glo); assay type: biochemical; conditions: kinase inhibitory activity, read-out: CDK2/E1 IC50
Summary of the method: (§3)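 Kinase preincubated 10 min with compound in 50 mM Hepes, 10 mM MgCl2, 0.01% Brij35, 2 mM DTT, then substrate/ATP added for 60 min at 25 °C. ADP formed measured by ADP-Glo luminescence; IC50 by nonlinear concentration-response fitting.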

CDK4/cyclin D1 = CDK4/cyclin D1 (Homo sapiens, UniProt P11802); assay: Assay of kinase activity (ADP-Glo); assay type: biochemical; conditions: kinase inhibitory activity
CDK4/cyclin D1, sequence (P11802 whole entry, species assumed): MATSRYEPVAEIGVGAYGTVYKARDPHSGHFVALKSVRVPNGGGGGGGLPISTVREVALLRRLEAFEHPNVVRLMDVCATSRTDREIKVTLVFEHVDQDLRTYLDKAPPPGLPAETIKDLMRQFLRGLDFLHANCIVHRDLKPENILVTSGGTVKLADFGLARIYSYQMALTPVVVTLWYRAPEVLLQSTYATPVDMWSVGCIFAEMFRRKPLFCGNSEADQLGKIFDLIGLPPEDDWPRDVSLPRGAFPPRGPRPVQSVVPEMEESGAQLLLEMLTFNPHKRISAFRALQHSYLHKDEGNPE
CDK4/cyclin D1, sequence (P24385 whole entry partner, species assumed): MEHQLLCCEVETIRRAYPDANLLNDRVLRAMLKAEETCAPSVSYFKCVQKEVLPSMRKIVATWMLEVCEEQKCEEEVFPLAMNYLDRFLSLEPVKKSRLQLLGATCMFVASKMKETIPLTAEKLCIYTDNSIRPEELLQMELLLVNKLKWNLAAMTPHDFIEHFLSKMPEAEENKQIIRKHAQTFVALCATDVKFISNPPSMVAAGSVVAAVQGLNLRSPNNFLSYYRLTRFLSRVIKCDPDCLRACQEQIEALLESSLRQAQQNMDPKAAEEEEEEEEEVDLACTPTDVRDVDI
Summary of the method: as §3

CDK9/cyclin T1, sequence (P50750 whole entry, species assumed): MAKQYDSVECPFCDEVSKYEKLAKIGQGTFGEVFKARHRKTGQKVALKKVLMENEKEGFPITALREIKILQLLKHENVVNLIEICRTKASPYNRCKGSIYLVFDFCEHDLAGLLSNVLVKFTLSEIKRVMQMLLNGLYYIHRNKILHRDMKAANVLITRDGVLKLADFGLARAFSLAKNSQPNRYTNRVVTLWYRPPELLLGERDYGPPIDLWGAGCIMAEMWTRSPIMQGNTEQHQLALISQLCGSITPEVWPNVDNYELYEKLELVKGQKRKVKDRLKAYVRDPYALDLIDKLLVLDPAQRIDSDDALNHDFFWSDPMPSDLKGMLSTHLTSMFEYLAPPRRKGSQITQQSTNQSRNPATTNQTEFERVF
CDK9/cyclin T1, sequence (O60563 whole entry partner, species assumed): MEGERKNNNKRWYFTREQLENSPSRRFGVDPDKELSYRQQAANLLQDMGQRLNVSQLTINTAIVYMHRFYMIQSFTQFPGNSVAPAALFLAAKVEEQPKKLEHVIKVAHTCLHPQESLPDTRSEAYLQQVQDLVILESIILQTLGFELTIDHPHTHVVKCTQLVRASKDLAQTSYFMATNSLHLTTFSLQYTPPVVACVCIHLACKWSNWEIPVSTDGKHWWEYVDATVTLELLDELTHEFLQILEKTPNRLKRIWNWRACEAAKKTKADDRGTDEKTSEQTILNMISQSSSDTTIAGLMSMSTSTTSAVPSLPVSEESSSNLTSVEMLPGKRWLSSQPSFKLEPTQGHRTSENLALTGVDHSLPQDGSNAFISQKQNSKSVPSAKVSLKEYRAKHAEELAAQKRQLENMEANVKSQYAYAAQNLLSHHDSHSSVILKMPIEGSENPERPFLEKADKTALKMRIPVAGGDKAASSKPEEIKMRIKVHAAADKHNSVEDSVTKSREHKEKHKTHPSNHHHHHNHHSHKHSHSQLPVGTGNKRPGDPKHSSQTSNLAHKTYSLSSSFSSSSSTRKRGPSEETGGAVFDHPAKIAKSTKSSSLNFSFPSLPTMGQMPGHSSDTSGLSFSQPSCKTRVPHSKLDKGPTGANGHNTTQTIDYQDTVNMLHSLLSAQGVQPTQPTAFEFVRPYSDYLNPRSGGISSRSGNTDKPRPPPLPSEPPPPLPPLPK

Compound	IC50 (CDK9/cyclin T1)	IC50 (CDK6/cyclin D3)	IC50 [1]	IC50 [2]	IC50 [3]	IC50 [4]	IC50 (CDK2/cyclin E)	IC50 (CDK4/cyclin D1)
C[C@@]1(O)CCC[C@H]1n1nnc2ccc3cnc(Nc4ccc(C(=O)N5CCNCC5)cc4)nc3c21 [Example I-65]	3 nM	3 nM	8 nM	5 nM	111 nM	35 nM	0.6 nM	0.6 nM
CC(C)N[C@H]1CCN(C(=O)c2ccc(Nc3ncc4ccc5nnn([C@H](C)C(C)(C)O)c5c4n3)cc2)C1 [Example I-55, (4-((1-((R)-3-hydroxy-3-methylbutan-2-yl)-1H-[1,2,3]triazolo[4,5-H]quinazolin-8-yl)amino)phenyl)((S)-3-(isopropylamino)pyrrolidin-1-yl)methanone]	6 nM	18 nM	15 nM	5 nM	80 nM	31 nM	0.7 nM	2 nM
CC(C)n1nnc2ccc3cnc(Nc4ccc(C(=O)N5CCC(F)CC5)cc4)nc3c21 [Example I-18, (4-Fluoropiperidin-1-yl)(4-((1-isopropyl-1H-[1,2,3]triazolo[4,5-H]quinazolin-8-yl)amino)phenyl)metha none]	25 nM	35 nM	129 nM	23 nM	247 nM	214 nM	2 nM	5 nM
CC(C)N[C@H]1CCN(C(=O)c2ccc(Nc3ncc4ccc5nnn([C@@H]6CCC[C@@]6(C)O)c5c4n3)cc2)C1 [Example I-63, (4-((1-((1R,2R)-2-Hydroxy-2-methylcyclopentyl)-1H-[1,2,3]triazolo[4,5-H]quinazolin-8-yl)amino)phenyl)((S)-3-(isopropylamino)pyrrolidin-1-yl)methanone]	3 nM	3 nM	1 nM	1 nM	15 nM	6 nM	0.08 nM	0.6 nM
CN1CCN(C(=O)c2ccc(Nc3ncc4ccc5nnn([C@@H]6CCC[C@@]6(C)O)c5c4n3)cc2)CC1 [Example I-66, (4-((1-((1R,2R)-2-Hydroxy-2-methylcyclopentyl)-1H-[1,2,3]triazolo[4,5-H]quinazolin-8-yl)amino)phenyl)(4-methylpiperazin-1-yl)methanone]	6 nM	15 nM	8 nM	2 nM	93 nM	17 nM	0.8 nM	1 nM
CC(C)n1nnc2ccc3cnc(Nc4ccc(C(=O)N5CC[C@@H](N(C)C)C5)cc4)nc3c21 [Example I-11, (R)-(3-(Dimethylamino)pyrrolidin-1-yl)(4-((1-isopropyl-1H-[1,2,3]triazolo[4,5-H]quinazolin-8-yl)amino)phenyl)metha none]	2 nM	6 nM	29 nM	4 nM	122 nM	148 nM	0.08 nM	0.7 nM
CC(C)n1nnc2ccc3cnc(Nc4ccc(C(=O)N5CCC(N(C)C)CC5)c(F)c4)nc3c21 [Example I-17, (4-(Dimethylamino)piperidin-1-yl)(2-fluoro-4-((1-isopropyl-1H-[1,2,3]triazolo[4,5-H]quinazolin-8-yl)amino)phenyl)metha none]	60 nM	190 nM	46 nM	12 nM	319 nM	93 nM	0.8 nM	2 nM
CC(C)n1nnc2ccc3cnc(Nc4ccc(C(=O)N5CC6CC(C5)N6)cc4)nc3c21 [Example I-24, (3,6-Diazabicyclo[3.1.1]heptan-3-yl)(4-((1-isopropyl-1H-[1,2,3]triazolo[4,5-H]quinazolin-8-yl)amino)phenyl)metha none]	8 nM	26 nM	6 nM	3 nM	44 nM	18 nM	0.1 nM	1 nM
C[C@@]1(O)CCC[C@H]1n1nnc2ccc3cnc(Nc4ccc(C(=O)N5CCS(=O)(=O)CC5)cc4)nc3c21 [Example I-68, (1,1-Dioxothiomorpholino)(4-((1-((1R,2R)-2-hydroxy-2-methylcyclopentyl)-1H-[1,2,3]triazolo[4,5-H]quinazolin-8-yl)amino)phenyl)methanone]	112 nM	34 nM	62 nM	8 nM	121 nM	181 nM	1 nM	2 nM
CC(C)n1nnc2ccc3cnc(Nc4ccc(C(=O)N5CCS(=O)(=O)CC5)cc4)nc3c21 [Example I-32, (1,1-Dioxothiomorpholino)(4-((1-isopropyl-1H-[1,2,3]triazolo[4,5-H]quinazolin-8-yl)amino)phenyl)metha none]	315 nM	230 nM	44 nM	9 nM	167 nM	80 nM	3 nM	15 nM
C[C@@H](n1nnc2ccc3cnc(Nc4ccc(C(=O)N5CCS(=O)(=O)CC5)cc4)nc3c21)C(C)(C)O [Example I-59, (R)-(1,1-Dioxothiomorpholino)(4-((1-(3-hydroxy-3-methylbutan-2-yl)-1H-[1,2,3]triazolo[4,5-H]quinazolin-8-yl)amino)phenyl)methanone]	46 nM	15 nM	127 nM	18 nM	543 nM	389 nM	1 nM	2 nM
C[C@@]1(O)CCC[C@H]1n1nnc2ccc3cnc(Nc4ccc(C(=O)N5CCCNCC5)cc4)nc3c21 [Example I-69, (1,4-diazepan-1-yl)(4-((1-((1R,2R)-2-hydroxy-2-methylcyclopentyl)-1H-[1,2,3]triazolo[4,5-H]quinazolin-8-yl)amino)phenyl)methanone]	2 nM	3 nM	6 nM	3 nM	20 nM	15 nM	0.05 nM	0.5 nM
C[C@@H](n1nnc2ccc3cnc(Nc4ccc(C(=O)N5CCCNCC5)cc4)nc3c21)C(C)(C)O [Example I-60, (R)-(1,4-Diazepan-1-yl)(4-((1-(3-hydroxy-3-methylbutan-2-yl)-1H-[1,2,3]triazolo[4,5-H]quinazolin-8-yl)amino)phenyl)methanone]	19 nM	3 nM	41 nM	12 nM	98 nM	88 nM	0.8 nM	1 nM
CN1CCCN(C(=O)c2ccc(Nc3ncc4ccc5nnn([C@@H]6CCC[C@@]6(C)O)c5c4n3)cc2)CC1 [Example I-70, (4-((1-((1,2R)-2-hydroxy-2-methylcyclopentyl)-1H-[1,2,3]triazolo[4,5-H]quinazolin-8-yl)amino)phenyl)(4-methyl-1,4-diazepan-1-yl)methanone]	2 nM	2 nM	1 nM	1 nM	3 nM	2 nM	0.06 nM	0.7 nM
CC(C)n1nnc2ccc3cnc(Nc4ccc(C(=O)N5C[C@@H](C)N[C@@H](C)C5)cc4)nc3c21 [Example I-23, ((3R,5S)-3,5-dimethylpiperazin-1-yl)(4-((1-isopropyl-1H-[1,2,3]triazolo[4,5-H]quinazolin-8-yl)amino)phenyl)metha none]	24 nM	35 nM	57 nM	4 nM	112 nM	73 nM	0.4 nM	3 nM
CC(C)n1nnc2ccc3cnc(Nc4ccc(C(=O)N5CCN[C@H](C)C5)cc4)nc3c21 [Example I-21, (R)-(4-((1-Isopropyl-1H-[1,2,3]triazolo[4,5-H]quinazolin-8-yl)amino)phenyl)(3-methylpiperazin-1-yl)methanone]	2 nM	14 nM	31 nM	4 nM	112 nM	35 nM	0.5 nM	1 nM
CC(C)n1nnc2ccc3cnc(Nc4ccc(C(=O)N5CC[C@@H](F)C5)cc4)nc3c21 [Example I-2, (R)-(3-Fluoropyrrolidin-1-yl)(4-((1-isopropyl-1H-[1,2,3]triazolo[4,5-H]quinazolin-8-yl)amino)phenyl)methanone]	8 nM	12 nM	46 nM	15 nM	175 nM	94 nM	0.3 nM	2 nM
